Source: US5780590A, “Antithrombotic azacycloalkylalkanoyl peptides and pseudopeptides” (Rhone-Poulenc Rorer Pharmaceuticals Inc., priority 1996, dated 1998)

How the values were obtained:
[1] = system: ADP-induced platelet aggregation in platelet rich plasma; test: Inhibition of ADP-Induced ex-vivo Platelet Aggregation; type: in vivo, mongrel dogs; conditions: dog, dose 5 mg/kg oral
Text: The Platelet Aggregation Assay is based on that described in Blood 66 (4), 946-952 (1985). The Fibrinogen-Binding Assay is essentially that of Ruggeri, Z. M., et al., Proc. Natl. Acad. Sci. USA 83, 5708-5712 (1986) and Plow, E. F., et al., Proc. Natl. Acad. Sci., USA 82, 8057-8061 (1985). The Inhibition of ADP-Induced ex-vivo Platelet Aggregation assay is based on that of Zucker, "Platelet Aggregation Measured by the Photoelectric Method", Methods in Enzymology 169, 117-133 (1989).
Inhibition of ADP-Induced ex-vivo Platelet Aggregation
Control blood samples are obtained 5-10 minutes prior to administration of a test compound in mongrel dogs weighing from 10 to 20 Kg. The compound is administered intragasticly, via aqueous gavage, or orally, via gelatin capsule. […]
The blood samples are centrifuged at 1000 rpm for 10 minutes to obtain platelet rich plasma (PRP). […] Platelet count in the PRP is determined by using a Coulter Counter (Coulter Electronics, Hialeah, Fla.). […] Platelet aggregation is monitored spectrophotometrically utilizing a light transmission aggregometer (Bio/Data Platelet Aggregation Profiler, Model PAP-4, Bio/Data Corp., Horsham, Pa.). For the testing of a compound, the rate of change (slope) of light transmittance and the maximum light transmittance (maximum aggregation) is recorded in duplicate. […]

[2] = Moisture sorption isotherms; type: physicochemical; conditions: 25° C. (FIG. 9)
Experimental: Moisture Sorption Isotherms of hygroscopic and non-hygroscopic crystalline forms of N-[N-[N-(4-piperdin-4-yl)butanoyl)-N-ethylglycyl]-(L)-aspartyl]-(L)-β-cyclohexylalanine amide are obtained on a VTI MB300G moisture balance. The experiments are conducted either by subjecting approximately 15 mg of the subject crystalline form to increasing and decreasing steps of % RH and following the weight gain (at each equilibrium step) as a function of % RH (FIG. 9) or by holding the subject crystalline form at constant humidity and following the weight gain as a function of time.

[3] = Isothermal microcalorimetry of solid state form conversion; type: physicochemical; conditions: 60° C. (FIG. 8)
Experimental: Isothermal microcalorimetry experiments on hygroscopic and non-hygroscopic crystalline forms of N-[N-[N-(4-piperdin-4-yl)butanoyl)-N-ethylglycyl]-(L)-aspartyl]-(L)-β-cyclohexylalanine amide are performed on a Thermometric® Thermal Activity Monitor (TAM). Solid state conversions of the different crystalline forms are studied by exposing the forms to different humidities or solvent vapors at different temperatures. The saturated salt solutions used to obtain different humidities were: KCl (80% RH), NaCl (75% RH), and NaBr (65% RH). Approximately 100 mg quantities of the forms are weighed into a TAM glass ampule and a microhygrostate containing a saturated salt solution (with excess solid) or an organic solvent is placed inside the ampule. The ampule is sealed, equilibrated to the temperature of the experiment, and lowered into the measuring position in the TAM. An identical system containing washed sea sand, in place of the form subject to testing, is placed on the reference side. Output power ([…]) is measured as a function of time (FIGS. 6-8).

| SMILES | % Inhibition of ex-vivo Platelet Aggregation After Oral Administration, 24 h [1] [%] | % weight gain vs. % RH [2] | conversion to non-hygroscopic form at 100% RH [3] |
| --- | --- | --- | --- |
| CCN(CC(=O)N[C@@H](CC(=O)O)C(=O)N[C@@H](CC1CCCCC1)C(N)=O)C(=O)CCCC1CCNCC1 [Example 15] | 5 | – | – |
| CCN(CC(=O)N[C@@H](CC(=O)O)C(=O)N[C@@H](CC1CCCCC1)C(N)=O)C(=O)CCCC1CCNCC1 [hygroscopic form] | – | picks up more water than the non-hygroscopic form as the RH increases | without the liquification |
